Data as given in publication PMC6459484, “Synthetic surfactin analogues have improved anti-PEDV properties” (PLoS ONE, 2019).
≈ marks a conversion by molar mass, not a printed value. Square brackets hold non-standard residues; d marks the D form. Peptide text beside a SMILES is read from it. * marks the point of attachment. Palmitoyl = CCCCCCCCCCCCCCCC(=O)*

Assays:
porcine RBCs = format: cell-based; details: for CC50 (50% cytotoxicity concentration, hemolysis): red cells of porcine, 1 h
Description: Hemolytic activity was measured according to the methods described in Jingdan, with some modifications. Briefly, serial dilutions of SLPs were added to 200 uL of a 1% suspension of porcine RBCs in PBS, followed by incubation for 1 h at 37 °C. Cells were centrifuged at 1000 g for 10 min, then 100 uL of each supernatant was transferred to wells of a 96-well plate. The optical density at 540 nm was measured using a microplate reader (Infinite 200 PRO, Tecan Group Ltd., Switzerland) and % hemolysis was calculated using the formula: Hemolysis(%)=ODS-ODB/ODP-ODB×100% where ODS, ODB, and ODP represent the optical density of the SLP-treated samples, negative control and positive control, respectively. 1% Triton X-100 was used for the positive control. Each sample was run in triplicate.
Fig 3 Hemolytic activity of lipopeptides. (A) The indicated concentration of SLPs were added to a 1% porcine RBC suspension in PBS, followed by incubation for 1 h at 37 °C and centrifugation. Pictures were taken after collecting a portion of the supernatant for quantification of hemolysis. (B) Hemolytic curve. Hemolysis (measured at OD540) is shown as a function of SLP concentration. 100% represents the OD obtained using 0.1% Triton X-100-treated red blood cells.

PEDV CV777 = assay: Plaque reduction assay (anti-PEDV activity); format: cell-based, Porcine epidemic diarrhea virus
Description: Cercopithecus aethiops kidney epithelial cells (Vero, ATCC, CCL-81) were cultured in high glucose DMEM (Gibco, US), supplemented with 10% fetal bovine serum (FBS, GIBCO), at 37 °C in a 5% CO2 humidified atmosphere. Cells were routinely seeded at a density of 2×10^5 /mL in plastic tissue culture flasks (25 cm^2 flasks, Corning, USA) and passaged every 3–4 days. PEDV CV777 was provided by the Jiangsu Academy of Agricultural Sciences (JAAS).
Vero cells were seeded at 2 × 10^5 cells/well in 24-well tissue culture plates and incubated 18–24 h at 37 °C until approximately 95% confluency was reached. 100 PFU of PEDV mixed with an equal volume of SLP in DMEM or DMEM alone were incubated 10 minutes at 37 °C, then added into the wells of the Vero cells and incubated 30 minutes at 4 °C. Cells were washed 3 times with DMEM then overlaid with DMEM/1% agar and incubated 72 hours at 37 °C. The cells were fixed with 4% formaldehyde, then stained with 0.1% crystal violet after the agar overlay was removed. The data are representative of 3 biological replicates and each plaque assay was performed in triplicate and values are expressed as means ± the standard deviation. Curve fitting and EC50 were calculated with GraphPad Prism 6 using the log[inhibitor] vs. response equation.
The SLPs were tested for anti-PEDV activity using a plaque reduction assay. Serial dilutions of SLPs were incubated with an equal volume of PEDV then aliquoted onto precooled cells in 12-well plates. After the virus has adsorbed to the cells at 4 °C, SLPs were washed away. The adsorbed virus particles were then counted by plaque forming assays (Fig 2A). The results were fitted to a sigmoid-curve and plotted Fig 2B. All SLPs have potent anti-PEDV effects above 50 μg/ml, but differences in their anti-PEDV effect.
Fig 2 Anti-PEDV activities of lipopeptides. (A) PEDV was incubated with series concentrations of SLPs for 10 minutes at 37 °C. After washing cells of unadsorbed virus, the remaining infectious particles was detected by plaque assay. (B) Anti-PEDV activity (% remaining PFU) plotted as a function of lipopeptide concentration. The results of three independent experiments are shown as means ± standard deviation. 100% represents plaque counts in the control (no lipopeptide) sample.

[1] = Critical micelle concentration by surface tension (ring method); format: physicochemical; details: samples stood 30 min at 22 °C, intersection of two linear regression lines
Description: Surface tensions were measured using the ring method. Samples were freshly prepared in a testing flask and allowed to stand for 30 minutes at 22 °C. Surface tension measurements were made using a surface tensiometer (HLD-LST-II, HENLIDA Co., Ltd, China). Linear regressions of the drop and the flat area were performed separately for the surface tension-concentration curve. The concentration at the intersection of the two lines is the critical micelle concentration (CMC).
The CMC was calculated by measuring the surface tension of each SLP over a range of concentrations. […] Linear regressions were performed independently using the data on the descending part of the curve below the CMC and the equilibrium part above the CMC. The intersection of the linear regression lines corresponds to the CMC (Table 3).
Fig 4 Critical micelle concentrations of the SLPs. CMCs were determined for SDS, surfactin, and SLPs by surface tension. The intersection of the two linear regression lines corresponds to the CMC value, (shown by the dotted lines).

[2] = HPLC retention time as measure of hydrophobicity; format: physicochemical; details: used as indicator of total hydrophobicity, SLP1>SLP2>SLP3
Excerpt: The cationic properties of synthetic lipopeptides are thought to be related to their antibacterial and hemolytic activities. […] Cyclic lipopeptides are reported to more readily lyse bacterial membranes than linear or branched lipopeptides. […] It has also been reported that the total hydrophobicity of synthetic lipopeptides is inversely related to hemolytic activity, although this conclusion was from data on only 3 related samples [27]. […] The relative hydrophobicity of SLP1, 2, and 3 is SLP1>SLP2>SLP3, as indicated by their HPLC retention times (17.6, 16.7, and 14.5 min, respectively).

PEDV [3] = details: cited from earlier work
Excerpt: In summary, we synthesized 10 surfactin analogues and characterized them to identify those with enhanced anti-viral properties. […] SLP5 is therefore a more promising synthetic surfactin analogue. Compared with surfactin, the structure of SLP5 is distinguished by its linear lipopeptide and the additional carboxyl grou ...

PEDV [4] = assay: Time of addition assay (viral N protein by western blot, viral RNA by qRT-PCR); format: cell-based, Porcine epidemic diarrhea virus; details: Vero cells, 1000 PFU PEDV, harvested 12 hpi, SLP5 50 μg/ml, surfactin 20 μg/ml
Description: Time of addition assay was performed according to the procedures described, with modifications. Confluent Vero cells in 12-well plates were infected with 1000 PFU of PEDV and incubated for 1 hr at 4 °C to synchronize infection. The inoculum was removed and 1 mL of 37 °C DMEM was added to each well, cells were then placed at 37 °C in a humidified incubator. At the indicated time points, SLP5, surfactin, or dielaidoyl-phosphatidylethanolamine (DEPE, AvantiPolarLipids, Alabaster, AL) was added dropwise to cells or virus to a final concentration of 50 μg/ml, 20 μg/ml, or 5 μg/ml and incubated a further 12 hours at 37 °C. Viral nucleic acid and protein levels in the cells were measured by qRT-PCR and western-blot respectively. The data shown is representative of 3 independent experiments.
Total RNA was extracted from cells using TRIzol Reagent (Invitrogen) according to the manufacturer’s instructions. cDNA was generated by reverse transcription using HiScript TM QRT SuperMix for qPCR (Vazyme) according to the manufacturer’s instructions. PEDV nucleic acid levels were assessed by measuring the viral nucleoprotein (N) using qRT-PCR with the TaKaRa SYBR Green qPCR Kit (TaKaRa). Primer sequences were as follows: PEDV-N-F (sense), 5’-[…]-3’; PEDV-N-R (antisense), 5’-[…]-3’; C-sabaeus-GAPDH-F, 5’-[…]-3’; C-sabaeus-GAPDH-R, 5’-[…]-3’. Gene level was calculated using the comparative Ct method and normalized to the endogenous levels of GAPDH.
Boiled cell lysates were subjected to SDS-PAGE then transferred to PVDF membrane (Roche, Basel, Switzerland) using a semi-dry transfer apparatus (GE, Little Chalfont, Buckinghamshire, UK). Membranes were blocked in 5% non-fat milk in TBS containing 0.01% Tween-20 (TBST) then incubated overnight at 4 °C with anti-PEDV N-protein monoclonal antibody (Median Diagnostics, South Korea) diluted in TBST with 1% BSA. Membranes were washed 30 min in TBST followed by incubation for 1 h at RT with 1:5000 HRP goat anti-mouse IgG antibody (ABGENT, San Diego, CA, USA) then thrice washed for 15 min in TBST. Membranes were incubated with ECL reagent (Thermo, Waltham, MA, USA) and imaged using a ChemiDoc™ system (Bio-Rad, Hercules, CA, USA).
Since SLP5 was the most promising surfactin analogue, we chose it for further study. Time of addition assays were performed to determine whether the SLP5 exerts its anti-PEDV effect at the same stage during infection as surfactin. Since surfactin acts directly on virions, the experiment was designed to examine events early in the infection process. Fig 6A summarizes the experimental plan and the eight treatments tested. Briefly, SLP5, surfactin, or DEPE was added to virus alone, cells alone, or to cells and virus together prior to infection, during virus adsorption, during virus invasion (1 h post infection at 37 °C), or during replication (1–12 hpi). Samples were harvested 12 hours after infection, and analyzed to measure cellular levels of viral protein (Fig 6B and 6C) and viral RNA (Fig 6D). […] Other antiviral mechanisms of SLP5 and surfactin cannot be ruled out since PEDV replication is inhibited to different degrees in some of the other treatment groups.
Fig 6 Time-of-addition experiments. (A) Vero cells were treated with SLP5, surfactin, or DEPE at different time points before, during, and after infection. […] (B) The PEDV nucleoprotein was detected by Western-blot, and (C) quantitated by band intensity relative to the internal control, GAPDH. (D) The PEDV genome was detected by qRT-PCR. […]

[5] = 100 PFU PEDV pre-incubated with lipopeptide 10 min at 37 °C, adsorbed to Vero cells 30 min at 4 °C, washed, agar overlay 72 h, 3 biological replicates each in triplicate, mean ± SD, log[inhibitor] vs. response fit

Row | Compound | Hemolytic activity, result in words (porcine RBCs) | CC50 (50% cytotoxicity concentration, hemolysis) (porcine RBCs) | EC50 (PEDV CV777; 72 h) | CMC [1] | HPLC retention time (relative hydrophobicity) [2] | Anti-PEDV potency compared with surfactin (PEDV CV777; plaque reduction assay, result in words) | EC50 (PEDV CV777; [5]) | Protection of piglets from PEDV challenge (PEDV [3]) | PEDV replication (nucleic acid and protein levels), reagent present throughout the experiment (treatment group 2) or at any stage (PEDV [4]; DEPE 5 μg/ml, 3 independent experiments) | PEDV replication, treatment group 5 (PEDV [4]; same as group 2 (little replication))
1 | CCCCCCCCCCCCCCCC(=O)N[C@@H](CCC(=O)O)C(=O)N[C@H](C(=O)N[C@H](CC(C)C)C(=O)N[C@@H](C)C(=O)N[C@@H](CC(=O)O)C(=O)N[C@H](CC(C)C)C(=O)N[C@H](C(N)=O)C(C)C)C(C)C [SLP1] (Palmitoyl-EV[dL]AD[dL]V-NH2) | slightly weaker than that of surfactin | 52.6 ± 2.3 µg/mL (≈ 52.8 µM) | 8.0 ± 0.3 µg/mL (≈ 8.04 µM) | 5.7 µg/mL | 17.6 min |  |  |  |  | 
2 | CCCCCCCCCCCCCCCC(=O)N[C@@H](CCC(=O)O)C(=O)N[C@H](C(=O)N[C@H](CC(C)C)C(=O)N[C@@H](CC(=O)O)C(=O)N[C@H](CC(C)C)C(=O)N[C@H](C(N)=O)C(C)C)C(C)C [SLP2] (Palmitoyl-EV[dL]D[dL]V-NH2) |  | 33.0 ± 1.6 µg/mL (≈ 35.7 µM) | 5.3 ± 0.5 µg/mL (≈ 5.73 µM) | 4.2 µg/mL | 16.7 min | higher potency than surfactin |  |  |  | 
3 | CCCCCCCCCCCCCCCC(=O)N[C@@H](CCC(=O)O)C(=O)N[C@H](C(=O)N[C@H](CC(C)C)C(=O)N[C@@H](CC(=O)O)C(=O)N[C@H](CC(C)C)C(N)=O)C(C)C [SLP3] (Palmitoyl-EV[dL]D[dL]-NH2) |  | 69.7 ± 2.6 µg/mL (≈ 84.5 µM) |  | 6.4 µg/mL | 14.5 min |  | 16.9 ± 1.6 µg/mL (≈ 20.5 µM) |  |  | 
4 | Surfactin |  |  |  | 12.1 µg/mL |  |  | 11.4 ± 0.7 µg/mL | protect piglets from PEDV challenge | little PEDV replication occurs | act directly on the virus
